Test results reported in patent US12139520B2 (priority 2020, dated 2024).
Numbered stars: 1 amine (or outer) side, 2 acyl side, 3 side chain; on linkers, the order of the positions; unused ones are H or OH. Bridge positions count the residues as written; N and C are the ends. Square brackets hold non-standard residues; d marks the D form. Peptide text beside a SMILES is read from it. * marks the point of attachment. C20 diacid = O=C(O)CCCCCCCCCCCCCCCCCCC(=O)*; γGlu = O=C(O)[C@H](CCC(=O)[*:2])N[*:1]; Hyp = O=C(O)[C@@H]1C[C@@H](O)CN1

Target: T1, hAMY3 receptor (Homo sapiens, UniProt O60896+P30988)
T1 sequence (P30988 25-474): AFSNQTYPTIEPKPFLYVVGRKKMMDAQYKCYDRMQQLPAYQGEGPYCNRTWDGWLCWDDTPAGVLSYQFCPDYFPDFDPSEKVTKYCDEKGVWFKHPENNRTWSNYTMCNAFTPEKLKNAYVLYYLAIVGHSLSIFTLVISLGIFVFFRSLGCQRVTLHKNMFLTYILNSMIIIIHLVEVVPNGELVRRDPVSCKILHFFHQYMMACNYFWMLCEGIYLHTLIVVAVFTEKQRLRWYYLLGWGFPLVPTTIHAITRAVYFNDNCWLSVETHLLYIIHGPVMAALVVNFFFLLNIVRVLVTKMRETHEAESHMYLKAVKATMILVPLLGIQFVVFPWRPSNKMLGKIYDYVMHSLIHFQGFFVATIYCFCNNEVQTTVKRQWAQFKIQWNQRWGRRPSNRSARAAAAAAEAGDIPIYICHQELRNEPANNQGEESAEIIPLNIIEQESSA
T1 sequence (O60896 24-148 partner): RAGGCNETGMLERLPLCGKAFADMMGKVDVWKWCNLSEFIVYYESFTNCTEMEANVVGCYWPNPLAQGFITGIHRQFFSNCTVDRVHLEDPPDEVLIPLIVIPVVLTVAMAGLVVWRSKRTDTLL
Test: cAMP assay for in vitro receptor activation, hAMY3-R
Type: cell-based
Settings: cAMP assay, hAMY3 receptor; read-out: hAMY3R EC50
Outline: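 Receptor activation was measured as cAMP accumulation in a monoclonal cell line stably overexpressing hAMY3. Stimulation with graded doses lasted 30 min at room temperature in the presence of 0.5 mM IBMX, with human amylin as positive control.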

Compound | EC50
CC[C@H](C)[C@H](NC(=O)[C@H](CCCCN)NC(=O)[C@H](CO)NC(=O)[C@H](CCCNC(=N)N)NC(=O)[C@@H]1CCCN1C(=O)[C@H](C)NC(=O)[C@@H](NC(=O)[C@H](CC(N)=O)NC(=O)[C@H](CC(=O)O)NC(=O)[C@H](CCCCN)NC(=O)[C@H](CC(=O)O)NC(=O)[C@H](CCCCN)NC(=O)[C@H](CC(=O)O)NC(=O)[C@@H](NC(=O)[C@H](Cc1ccccc1)NC(=O)[C@H](CCC(N)=O)NC(=O)[C@H](Cc1ccc(O)cc1)NC(=O)[C@@H](NC(=O)[C@H](CCC(N)=O)NC(=O)[C@H](Cc1c[nH]cn1)NC(=O)[C@H](C)NC(=O)[C@H](CC(C)C)NC(=O)[C@H](CCCNC(=N)N)NC(=O)[C@H](CCC(N)=O)NC(=O)[C@@H](NC(=O)[C@@H](NC(=O)[C@@H]1CSSC[C@H](NC(=O)CN)C(=O)N[C@@H](CCCNC(=N)N)C(=O)N[C@@H]([C@@H](C)O)C(=O)NCC(=O)N[C@@H]([C@@H](C)O)C(=O)N1)[C@@H](C)O)C(C)C)[C@@H](C)CC)[C@@H](C)O)C(C)C)C(=O)NCC(=O)N1CCC[C@H]1C(=O)N[C@@H](CC(N)=O)C(=O)NCC(=O)N1C[C@H](O)C[C@H]1C(N)=O [compound 157] (H-GCRTGTCTVQRLAHQIYQFTDKDKDNVAPRSKIGPNG[Hyp]-NH2; disulfide 2-7; N-terminus assumed) | 0.047 nM
CC[C@H](C)[C@H](NC(=O)[C@H](CCC(N)=O)NC(=O)[C@H](Cc1c[nH]cn1)NC(=O)[C@H](C)NC(=O)[C@H](CC(C)C)NC(=O)[C@H](CCCNC(=N)N)NC(=O)[C@H](CCC(N)=O)NC(=O)[C@@H](NC(=O)[C@@H](NC(=O)[C@@H]1CSSC[C@H](NC(=O)CN)C(=O)N[C@@H](CCCNC(=N)N)C(=O)N[C@@H](Cc2ccccc2)C(=O)NCC(=O)N[C@@H]([C@@H](C)O)C(=O)N1)[C@@H](C)O)C(C)C)C(=O)N[C@@H](Cc1ccc(O)cc1)C(=O)N[C@@H](CCC(N)=O)C(=O)N[C@@H](Cc1ccccc1)C(=O)N[C@H](C(=O)N[C@@H](CC(=O)O)C(=O)N[C@@H](CCCCN)C(=O)N[C@@H](CC(=O)O)C(=O)N[C@@H](CCCCN)C(=O)N[C@@H](CC(=O)O)C(=O)N[C@@H](CC(N)=O)C(=O)N[C@H](C(=O)N[C@@H](C)C(=O)N1CCC[C@H]1C(=O)N[C@@H](CCCNC(=N)N)C(=O)N[C@@H](CO)C(=O)N[C@@H](CCCCN)C(=O)N[C@H](C(=O)N[C@@H](CO)C(=O)N1CCC[C@H]1C(=O)N[C@@H](CCC(N)=O)C(=O)NCC(=O)N1C[C@H](O)C[C@H]1C(N)=O)[C@@H](C)CC)C(C)C)[C@@H](C)O [compound 169] (H-GCRFGTCTVQRLAHQIYQFTDKDKDNVAPRSKISPQG[Hyp]-NH2; disulfide 2-7; N-terminus assumed) | 0.063 nM
CC[C@H](C)[C@H](NC(=O)[C@H](CCC(N)=O)NC(=O)[C@H](Cc1c[nH]cn1)NC(=O)[C@H](C)NC(=O)[C@H](CC(C)C)NC(=O)[C@H](CCCNC(=N)N)NC(=O)[C@H](CCC(N)=O)NC(=O)[C@@H](NC(=O)[C@@H](NC(=O)[C@@H]1CSSC[C@H](NC(=O)CN)C(=O)N[C@@H](CCCNC(=N)N)C(=O)N[C@@H](Cc2ccccc2)C(=O)NCC(=O)N[C@@H]([C@@H](C)O)C(=O)N1)[C@@H](C)O)C(C)C)C(=O)N[C@@H](Cc1ccc(O)cc1)C(=O)N[C@@H](CCC(N)=O)C(=O)N[C@@H](Cc1ccccc1)C(=O)N[C@H](C(=O)N[C@@H](CC(=O)O)C(=O)N[C@@H](CCCCN)C(=O)N[C@@H](CC(=O)O)C(=O)N[C@@H](CCCCN)C(=O)N[C@@H](CC(=O)O)C(=O)N[C@@H](CC(N)=O)C(=O)N[C@H](C(=O)N[C@@H](C)C(=O)N1CCC[C@H]1C(=O)N[C@@H](CCCNC(=N)N)C(=O)N[C@@H](CO)C(=O)N[C@@H](CCCCN)C(=O)N[C@H](C(=O)N[C@@H](CO)C(=O)N1CCC[C@H]1C(=O)N[C@@H](CCC(N)=O)C(=O)NCC(=O)N[C@@H](Cc1ccc(O)cc1)C(N)=O)C(C)C)C(C)C)[C@@H](C)O [compound 174] (H-GCRFGTCTVQRLAHQIYQFTDKDKDNVAPRSKVSPQGY-NH2; disulfide 2-7; N-terminus assumed) | 0.071 nM
CC[C@H](C)[C@H](NC(=O)[C@H](CCCCN)NC(=O)[C@H](CO)NC(=O)[C@H](CCCNC(=N)N)NC(=O)[C@@H]1CCCN1C(=O)[C@H](C)NC(=O)[C@@H](NC(=O)[C@H](CC(N)=O)NC(=O)[C@H](CC(=O)O)NC(=O)[C@H](CCCCN)NC(=O)[C@H](CC(=O)O)NC(=O)[C@H](CCCCN)NC(=O)[C@H](CC(=O)O)NC(=O)[C@@H](NC(=O)[C@H](Cc1ccccc1)NC(=O)[C@H](CCC(N)=O)NC(=O)[C@H](Cc1ccc(O)cc1)NC(=O)[C@@H](NC(=O)[C@H](CCC(N)=O)NC(=O)[C@H](Cc1c[nH]cn1)NC(=O)[C@H](C)NC(=O)[C@H](CC(C)C)NC(=O)[C@H](CCCNC(=N)N)NC(=O)[C@H](CCC(N)=O)NC(=O)[C@@H](NC(=O)[C@@H](NC(=O)[C@@H]1CSSC[C@H](NC(=O)CN)C(=O)N[C@@H](CCCNC(=N)N)C(=O)N[C@@H]([C@@H](C)O)C(=O)NCC(=O)N[C@@H]([C@@H](C)O)C(=O)N1)[C@@H](C)O)C(C)C)[C@@H](C)CC)[C@@H](C)O)C(C)C)C(=O)NCC(=O)N1CCC[C@H]1C(=O)N[C@@H](CCC(N)=O)C(=O)NCC(=O)N1C[C@H](O)C[C@H]1C(N)=O [compound 179] (H-GCRTGTCTVQRLAHQIYQFTDKDKDNVAPRSKIGPQG[Hyp]-NH2; disulfide 2-7) | 0.082 nM
CC(C)C[C@H](NC(=O)[C@H](CCCNC(=N)N)NC(=O)[C@H](CCC(N)=O)NC(=O)[C@@H](NC(=O)[C@@H](NC(=O)[C@@H]1CSSC[C@H](NC(=O)CNC(=O)CC[C@H](NC(=O)CCCCCCCCCCCCCCCCCCC(=O)O)C(=O)O)C(=O)N[C@@H](CCCNC(=N)N)C(=O)N[C@@H](Cc2ccccc2)C(=O)NCC(=O)N[C@@H]([C@@H](C)O)C(=O)N1)[C@@H](C)O)C(C)C)C(=O)N[C@@H](C)C(=O)N[C@@H](Cc1c[nH]cn1)C(=O)N[C@@H](Cc1ccccc1)C(=O)N[C@@H](CC(C)C)C(=O)N[C@@H](Cc1ccc(O)cc1)C(=O)N[C@@H](CCC(N)=O)C(=O)N[C@@H](Cc1ccccc1)C(=O)N[C@H](C(=O)N[C@@H](CC(=O)O)C(=O)N[C@@H](CCCCN)C(=O)N[C@@H](CC(=O)O)C(=O)N[C@@H](CCCCN)C(=O)N[C@@H](CC(=O)O)C(=O)N[C@@H](CC(N)=O)C(=O)N[C@H](C(=O)N[C@@H](C)C(=O)N1CCC[C@H]1C(=O)N[C@@H](CCCNC(=N)N)C(=O)N[C@H](C(=O)N[C@@H](CC(N)=O)C(=O)N[C@H](C(=O)NCC(=O)N1CCC[C@H]1C(=O)N[C@@H](CCC(N)=O)C(=O)NCC(=O)N[C@@H](Cc1ccc(O)cc1)C(N)=O)C(C)C)[C@@H](C)O)C(C)C)[C@@H](C)O [compound 200] ({C20 diacid-γGlu}-GCRFGTCTVQRLAHFLYQFTDKDKDNVAPRTNVGPQGY-NH2; disulfide 2-7) | 0.126 nM
CC(C)C[C@H](NC(=O)[C@H](CCCNC(=N)N)NC(=O)[C@H](CCC(N)=O)NC(=O)[C@@H](NC(=O)[C@@H](NC(=O)[C@@H]1CSSC[C@H](NC(=O)CNC(=O)CC[C@H](NC(=O)CCCCCCCCCCCCCCCCCCC(=O)O)C(=O)O)C(=O)N[C@@H](CCCNC(=N)N)C(=O)N[C@@H](Cc2ccccc2)C(=O)NCC(=O)N[C@@H]([C@@H](C)O)C(=O)N1)[C@@H](C)O)C(C)C)C(=O)N[C@@H](C)C(=O)N[C@@H](Cc1c[nH]cn1)C(=O)N[C@@H](Cc1ccccc1)C(=O)N[C@@H](CC(C)C)C(=O)N[C@@H](Cc1ccc(O)cc1)C(=O)N[C@@H](CCC(N)=O)C(=O)N[C@@H](Cc1ccccc1)C(=O)N[C@H](C(=O)N[C@@H](CC(=O)O)C(=O)N[C@@H](CCCCN)C(=O)N[C@@H](CC(=O)O)C(=O)N[C@@H](CCCCN)C(=O)N[C@@H](CC(=O)O)C(=O)N[C@@H](CC(N)=O)C(=O)N[C@H](C(=O)N[C@@H](C)C(=O)N1CCC[C@H]1C(=O)N[C@@H](CCCNC(=N)N)C(=O)N[C@H](C(=O)N[C@@H](CCCCN)C(=O)N[C@H](C(=O)NCC(=O)N[C@@H](CO)C(=O)N[C@@H](CC(N)=O)C(=O)NCC(=O)N[C@@H](Cc1ccc(O)cc1)C(N)=O)C(C)C)[C@@H](C)O)C(C)C)[C@@H](C)O [compound 223] ({C20 diacid-γGlu}-GCRFGTCTVQRLAHFLYQFTDKDKDNVAPRTKVGSNGY-NH2; disulfide 2-7) | 0.186 nM
CC[C@H](C)[C@H](NC(=O)[C@H](CCC(N)=O)NC(=O)[C@H](Cc1c[nH]cn1)NC(=O)[C@H](C)NC(=O)[C@H](CC(C)C)NC(=O)[C@H](CCCNC(=N)N)NC(=O)[C@H](CCC(N)=O)NC(=O)[C@@H](NC(=O)[C@@H](NC(=O)[C@@H]1CSSC[C@H](NC(=O)[C@@H](N)CCCCN)C(=O)N[C@@H](CC(N)=O)C(=O)N[C@@H](Cc2ccccc2)C(=O)N[C@@H](C)C(=O)N[C@@H]([C@@H](C)O)C(=O)N1)[C@@H](C)O)C(C)C)C(=O)N[C@@H](Cc1ccc(O)cc1)C(=O)N[C@@H](CCC(N)=O)C(=O)N[C@@H](Cc1ccccc1)C(=O)N[C@H](C(=O)N[C@@H](CC(=O)O)C(=O)N[C@@H](CCCCN)C(=O)N[C@@H](CC(=O)O)C(=O)N[C@@H](CCCCN)C(=O)N[C@@H](CC(=O)O)C(=O)N[C@@H](CC(N)=O)C(=O)N[C@H](C(=O)N[C@@H](C)C(=O)N1CCC[C@H]1C(=O)N[C@@H](CCCNC(=N)N)C(=O)N[C@H](C(=O)N[C@@H](CCCCN)C(=O)N[C@H](C(=O)NCC(=O)N[C@@H](CO)C(=O)N[C@@H](CC(N)=O)C(=O)NCC(=O)N[C@@H](Cc1ccc(O)cc1)C(N)=O)C(C)C)[C@@H](C)O)C(C)C)[C@@H](C)O [compound 361] (H-KCNFATCTVQRLAHQIYQFTDKDKDNVAPRTKVGSNGY-NH2; disulfide 2-7; N-terminus assumed) | 0.006 nM
